One experiment deals with T1, Human recombinant GSK-3β (Homo sapiens, UniProt P49841).
T1 construct: purchased Millipore (Millipore Iberica S.A.U.)
Description: GSK-3β inhibition in vitro assay (Kinase-Glo luminescence). As to conditions: ATP 1 µM, GSM substrate 25 µM; mean ± SEM. It counts as biochemical. Here is the method: Human recombinant GSK-3β, prephosphorylated polypeptide substrate and white 96-well plates were purchased from Millipore (Millipore Iberica S.A.U.). Kinase-Glo Luminescent Kinase Assay was obtained from Promega (Promega Biotech Iberica, SL). Adenosinetriphosphate (ATP) and all other reagents were from Sigma-Aldrich. Assay buffer contained 50 mM 4-(2-hydroxyethyl)-1- piperazineethanesulfonic acid (HEPES) (pH 7.5), 1 mM ethylenediaminetetraacetic acid (EDTA), 1 mM ethylene glycol tetraacetic acid (EGTA), and 15 mM magnesium acetate. The in solution experiments for GSK-3β inhibition analysis were performed by following the method developed by Baki et al^42. In a typical assay, 10 µL of test compound (dissolved in DMSO at 1 mM concentration and diluted in advance in assay buffer to the desired concentration) and 10 µL (20 ng) of enzyme were added to each well in presence of 20 µL of assay buffer containing GSM substrate and ATP in order to reach a 25 µM and 1 µM final concentration respectively. […] After a 30 min incubation time at 30 °C, the enzymatic reaction was stopped by adding 40 µL of Kinase-Glo reagent. Glow-type luminescence was recorded after 10 min using a VictorX 3 PerkinElmer plate reader. […]. The linear regression parameters were determined and the IC50 extrapolated (GraphPad Prism 4.0, GraphPad Software Inc.).
Background: Kinase-Glo measures the ATP left after a reaction by luminescence.

For the next experiment, the system named is SH-SY5Y cells. Description: Effect on Aβ25-35 peptide-induced cell death (MTT assay). The format is cell-based. As to conditions: Homo sapiens, read-out: increase in cell viability. Here is the method:
Lyophilized synthetic Aβ25-35 peptide was dissolved in sterile water at a concentration of 2 mM, aliquoted and kept at -80°C until use. Aliquots were diluted in culture medium to achieve a final concentration of 30 µM and incubated for 72h at 37°C to form aggregated amyloid. SH-SY5Y cells were seeded in 96-well culture plates at a density of 12 × 10^4 cells per well in DMEM/F12 (1 :1) medium supplemented with 10% fetal bovine serum, 1X non-essential amino acids, 100 units/ml penicillin and 10 mg/ml streptomycin (Dutscher, France). Cultures were kept under a CO2/air (5%/95%) humidified atmosphere at 37°C. After 24h of incubation, the cultures were treated with 100 µl of the compound BIGI-3h or DMSO (0.1%) in DMEM/F12 (1:1) medium supplemented with 1% fetal bovine serum, 1X non-essential amino acids, 100 units/ml penicillin and 10 mg/ml streptomycin. After 24h of treatment, cells were co-incubated with Aβ25-35 peptide (30 µM) with or without the compound BIGI-3h for an additional period of 24h. MTT assay, a common colorimetric assay for assessing cell metabolic activity, was performed as described below.
The cell viability was assessed by measuring the reduction of MTT (3-(4,5-dimethylthiazol-2-yl)-2,5-diphenyltetrazolium bromide) to a formazan product. […] The absorbance at 570 nm and 630 nm (background) was measured using a microplate reader.
In general terms: Formazan colour is commonly taken as a measure of viable cells.

The subject of the next experiment is mice. Description: Object Recognition task (ORT), scopolamine-induced memory impairment. It counts as in vivo. Here is the method: For behavioural studies, 50 swiss female 10-week-old weighing 25-30 g were used. Memory impairment was induced by the potent antimuscarinic drug scopolamine hydrobromide (0.5 mg/kg, Sigma) dissolved in saline buffer. To explore the potential of BIGI-3h as a cognitive enhancer, the compound was administered at a dose of 1 mg/kg and 10 mg/kg. For comparison, the antiamnesic effect of donepezil was tested (Tocris Bioscience, R&D Systems Inc.) at a dose of 1 mg/kg. Both products, 3h and donepezil, were dissolved in saline buffer containing 3.6% dimethyl sulfoxide. All drug solutions were independently prepared immediately before their use and were administered intraperitoneally in 10 mL/kg of vehicle volume. Different batches of mice were used for each experiment. The animals were distributed into 5 experimental groups (I-V): control groups (I) mice administered 3.6% DMSO in saline buffer, labelled as "control vehicle"; experimental groups (II-V) consisted of (II) mice administered scopolamine dissolved in 3.6% DMSO in saline buffer, labelled as "scop/DMSO," (III) mice co-administered scopolamine plus Donepezil, labelled as "Scopo/donep," (IV) and (V) mice co-administrated scopolamine plus BIGI-3h at 1mg/Kg and 10mg/Kg labelled respectively "Scopo/3h 1" "Scopo/3h 10".
Spontaneous object recognition was tested as described previously, 28 with slight modifications. All behavioural experiments took place during the light phase of the 12-h light/ dark cycle between 10 am and 3 pm to minimize the influence of circadian rhythm, and they were conducted with the investigators blind to treatments. […] The total time spent in active exploration of each object during T1 and T2 was determined with a computerized tracking system and image analyzer (Ethovision XT, Noldus Information Technology) that tracked the nose, centre and tail points of each mouse^45. As a criterion of active object exploration, it was measured the time spent by the animal directing its nose to the object at a distance of less than 2 cm and/or touching it with the vibrissae or nose. […]

SMILES strings stand for the structures.

T1 sequence (P49841 whole entry): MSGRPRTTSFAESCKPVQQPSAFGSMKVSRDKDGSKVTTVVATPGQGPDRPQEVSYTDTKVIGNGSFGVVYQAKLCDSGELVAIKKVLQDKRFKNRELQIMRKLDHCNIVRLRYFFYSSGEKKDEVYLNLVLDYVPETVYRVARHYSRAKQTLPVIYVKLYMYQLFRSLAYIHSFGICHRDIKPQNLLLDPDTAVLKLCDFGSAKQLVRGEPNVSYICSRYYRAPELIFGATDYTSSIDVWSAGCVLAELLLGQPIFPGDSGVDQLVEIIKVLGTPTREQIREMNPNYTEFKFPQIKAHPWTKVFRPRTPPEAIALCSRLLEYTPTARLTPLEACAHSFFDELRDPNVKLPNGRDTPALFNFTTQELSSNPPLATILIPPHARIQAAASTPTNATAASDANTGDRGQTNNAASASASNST

Turning to `CCOC(=O)C1=C(C)N(CCC2CCN(Cc3ccccc3)CC2)C(=O)NC1c1coc2c(Cl)cc(Cl)cc2c1=O` (racemic) [BIGI-3h, ethyl 1-(2-(1-benzylpiperidin-4-yl)ethyl)-4-(6,8-dichloro-4-oxo-4H-chromen-3-yl)-6-methyl-2-oxo-1,2,3,4-tetrahydropyrimidine-5-carboxylate], the IC50 (in general, the concentration that inhibits the measured activity by half) on Human recombinant GSK-3β was determined as 29.1 µM. In the experiment on SH-SY5Y cells, the viability (commonly a per cent measure of how many cells are alive, often set against a control) at 10 µM amounted to 40.4% and the viability at 20 µM worked out at 61.4%. In the experiment on mice (1 mg/kg intraperitoneally with scopolamine 0.5 mg/kg), the “recognition index / discrimination index (Figure 5)” value is reported as “reversed the short-term memory impairment induced by scopolamine”. Besides, the “recognition index / discrimination index (Figure 5)” value in the experiment on mice (10 mg/kg intraperitoneally with scopolamine 0.5 mg/kg, **p < 0.01 vs scopo/DMSO) is listed as “significantly improved discrimination index”.

The values above are taken from patent EP4168403B1 (priority 2020, dated 2021).
